Measurements taken from patent publication US20110178053A1, “AZACARBOLINE DERIVATIVES, PREPARATION METHOD THEREOF AND THERAPEUTIC USE OF SAME” (SANOFI-AVENTIS, priority 2008, published 2011).

Key:
Type in all cases: biochemical
[1] = biological target: T1, Pim-2 (Homo sapiens, UniProt Q9P1W9); experiment: TR-FRET assay, Pim-2 kinase (phosphorylation of Bad Ser112); conditions: TR-FRET; ATP 40 μM; read-out: IC50 Pim2
T1 construct: His6-labelled recombinant full-length human Pim-1, Pim-2 or Pim-3 protein; His6; made in house
Description: (§1) In order to determine the inhibition of activation of Pim kinases, the compounds of the invention are tested in accordance with a routinely used in vitro TR-FRET assay (Time-Resolved Fluorescence Resonance Energy Transfer). […] For the assay, the following reagents are used:
(§2) Pim kinase—His6-labelled recombinant full-length human Pim-1, Pim-2 or Pim-3 protein (prepared according to J. Mol. Biol. (2005) 348, 183-193); Bad—His6-labelled recombinant full-length human Bad protein (prepared according to J. Mol. Biol. (2005) 348, 183-193); α-His6-APC—murine monoclonal antibody conjugated to allophycocyanin SureLight™ directed against the His6 label (Perkin-Elmer, No. AD0059H, Waltham, Mass., United States); • β-P˜Bad-Eu—murine monoclonal antibody (Cell Signaling Technology #9296B, Danvers, Mass., United States) directed against phosphoBad (Ser112) (7E11) custom-labelled by Perkin-Elmer with the reagent LANCE™ Eu-W1024.
(§3) The assay is based on Perkin-Elmer's LANCE™ technology: the Eu-labelled antibody binds to phospho-Ser112 and generates a TR-FRET signal by interaction with the APC-labelled antibody directed against His6, bound to the His6 label of Bad. The TR-FRET signal is detected using a SpectraMax M5 plate reader (Molecular Devices) with the following settings: λex=340 nm, λem1=615 nm, λem2=665 nm. The ratio of the fluorescence signal at 665 nm to the fluorescence signal at 615 nm is used as the signal reading for the IC50 (calculation is based on the 4-parameter logistic model). The assay is performed in a 384-well format; the liquid manipulations are performed using a Beckman 3000 liquid manipulations station. The test compounds are tested at 10 concentration points in duplicate; the highest compound concentration is typically equal to 30 μM. The ATP concentration is equal to 40 μM, which is equivalent to the apparent KM value.

[2] = biological target: T2, Pim-1 (Homo sapiens, UniProt P11309); experiment: TR-FRET assay, Pim-1 kinase (phosphorylation of Bad Ser112); conditions: TR-FRET; ATP 40 μM; read-out: IC50 Pim1
T2 construct: His6-labelled recombinant full-length human Pim-1, Pim-2 or Pim-3 protein; His6; made in house
Description: as §1, §2, §3

[3] = biological target: T3, Pim-3 (Homo sapiens, UniProt Q86V86); experiment: TR-FRET assay, Pim-3 kinase (phosphorylation of Bad Ser112); conditions: TR-FRET; ATP 40 μM; read-out: IC50 Pim3
T3 construct: His6-labelled recombinant full-length human Pim-1, Pim-2 or Pim-3 protein; His6; made in house
Description: as §1, §2, §3

T2 sequence (P11309 whole entry): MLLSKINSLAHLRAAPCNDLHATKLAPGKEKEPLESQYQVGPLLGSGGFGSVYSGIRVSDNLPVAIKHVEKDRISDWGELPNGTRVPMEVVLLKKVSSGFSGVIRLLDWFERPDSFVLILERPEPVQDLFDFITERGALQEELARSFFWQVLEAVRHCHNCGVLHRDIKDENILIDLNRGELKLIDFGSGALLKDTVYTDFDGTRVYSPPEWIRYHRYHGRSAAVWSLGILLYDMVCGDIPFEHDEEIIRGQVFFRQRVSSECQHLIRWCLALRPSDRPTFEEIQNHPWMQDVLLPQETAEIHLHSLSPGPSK
T1 sequence (Q9P1W9 whole entry): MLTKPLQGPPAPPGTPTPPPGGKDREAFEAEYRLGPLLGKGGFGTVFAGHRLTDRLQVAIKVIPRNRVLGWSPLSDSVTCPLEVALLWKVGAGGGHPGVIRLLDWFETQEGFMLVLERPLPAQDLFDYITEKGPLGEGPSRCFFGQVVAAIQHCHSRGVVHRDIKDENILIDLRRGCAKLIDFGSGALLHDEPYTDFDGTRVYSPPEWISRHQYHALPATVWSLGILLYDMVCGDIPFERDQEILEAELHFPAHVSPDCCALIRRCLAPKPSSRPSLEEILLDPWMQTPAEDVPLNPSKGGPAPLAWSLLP

| Structure (SMILES) | IC50 [1] | IC50 [2] | IC50 [3] |
| --- | --- | --- | --- |
| Cc1cscc1-c1c(F)cnc2[nH]c3cnc(-c4cccnc4)cc3c12 [Example 57, 3-fluoro-4-(4-methyl-thiophen-3-yl)-6-(pyrid-3-yl)-9H-pyrrolo[2,3-b:5,4-c′]-dipyridine] | 1000 to 5000 nM | 1000 to 5000 nM | 100 to 1000 nM |
| CCOc1ncccc1-c1c(F)cnc2[nH]c3cnc(-c4cccnc4)cc3c12 [Example 64, 4-(2-ethoxypyrid-3-yl)-3-fluoro-6-(pyrid-3-yl)-9H-pyrrolo[2,3-b:5,4-c′]dipyridine] | > 5000 nM | 100 to 1000 nM | 1000 to 5000 nM |
| COc1ncc(-c2c(F)cnc3[nH]c4cnc(-c5cccnc5)cc4c23)cn1 [Example 73, 3-fluoro-4-(2-methoxypyrimidin-5-yl)-6-(pyrid-3-yl)-9H-pyrrolo[2;3-b:5,4-c′]dipyridine] | > 5000 nM | 100 to 1000 nM | 1000 to 5000 nM |
| CC(C)N1CCN(c2c(F)cnc3[nH]c4cnc(-c5cccnc5)cc4c23)CC1 [Example 75, 3-fluoro-4-[4-(propan-2-yl)-piperazin-1-yl]-6-(pyrid-3-yl)-9H-pyrrolo[2,3-b:5,4-c′]dipyridine] | 1000 to 5000 nM | 1 to 100 nM | 100 to 1000 nM |
| Fc1cnc2[nH]c3cnc(-c4cccnc4)cc3c2c1N1CCCCC1 [Example 76, 3-fluoro-4-(piperid-1-yl)-6-(pyrid-3-yl)-9H-pyrrolo[2,3-b:5,4-c′]dipyridine] | 100 to 1000 nM | 1 to 100 nM | 1 to 100 nM |
| CN1CCC(N2CCN(c3c(F)cnc4[nH]c5cnc(-c6cccnc6)cc5c34)CC2)CC1 [Example 77, 3-fluoro-4-[4-(1-methylpiperid-4-yl)piperazin-1-yl]-6-(pyrid-3-yl)-9H-pyrrolo-[2,3-b:5,4-c′]-dipyridine] | > 5000 nM | 100 to 1000 nM | 100 to 1000 nM |
| Fc1cnc2[nH]c3cnc(-c4cccnc4)cc3c2c1N1CCC(N2CCOCC2)CC1 [Example 78, 3-fluoro-4-[4-(morpholin-4-yl)piperid-1-yl]-6-(pyrid-3-yl)-9H-pyrrolo[2,3-b:5,4-c′]-dipyridine] | > 5000 nM | 1 to 100 nM | 100 to 1000 nM |
| CN1CCCN(c2c(F)cnc3[nH]c4cnc(-c5cccnc5)cc4c23)CC1 [Example 80, 3-fluoro-4-(4-methyl-1,4-diazepan-1-yl)-6-(pyrid-3-yl)-9H-pyrrolo[2,3-b:5,4-c′]dipyridine] | > 5000 nM | 100 to 1000 nM | 100 to 1000 nM |
| OCCN1CCN(c2c(F)cnc3[nH]c4cnc(-c5cccnc5)cc4c23)CC1 [Example 81, 2-{4-[3-fluoro-6-(pyrid-3-yl)-9H-pyrrolo[2,3-b:5,4-c′]dipyrid-4-yl]piperazin-1-yl}ethanol] | 1000 to 5000 nM | 1 to 100 nM | 100 to 1000 nM |
| CN1CCN(C2CCN(c3c(F)cnc4[nH]c5cnc(-c6cccnc6)cc5c34)CC2)CC1 [Example 82, 3-fluoro-4-[4-(4-methylpiperazin-1-yl)piperid-1-yl]-6-(pyrid-3-yl)-9H-pyrrolo-[2,3-b:5,4-c′]-dipyridine] | 1000 to 5000 nM | 1 to 100 nM | 100 to 1000 nM |
| Fc1cnc2[nH]c3cnc(-c4cccnc4)cc3c2c1N1CCC(N2CCCCC2)CC1 [Example 83, 4-(1.4′-bipiperid-1′-yl)-3-fluoro-6-(pyrid-3-yl)-9H-pyrrolo[2,3-b:5,4-c′]-dipyridine] | > 5000 nM | 100 to 1000 nM | 100 to 1000 nM |
| CN(C)C1CCN(c2c(F)cnc3[nH]c4cnc(-c5cccnc5)cc4c23)CC1 [Example 84, 1-[3-fluoro-6-(pyrid-3-yl)-9H-pyrrolo[2,3-b:5,4-c′]dipyrid-4-yl]-N,N-dimethylpiperid-4-amine] | 1000 to 5000 nM | 100 to 1000 nM | 100 to 1000 nM |
| Fc1cnc2[nH]c3cnc(-c4cccnc4)cc3c2c1N1CCC(N2CCCC2)CC1 [Example 85, 3-fluoro-6-(pyrid-3-yl)-4-[4-(pyrrolidin-1-yl)piperid-1-yl]-9H-pyrrolo[2,3-b:5,4-c′]-dipyridine] | 1000 to 5000 nM | 1 to 100 nM | 100 to 1000 nM |
| Fc1cnc2[nH]c3cnc(-c4cccnc4)cc3c2c1N1CCN(CCCN2CCOCC2)CC1 [Example 87, 3-fluoro-4-{4-[3-(morpholin-4-yl)propyl]piperazin-1-yl}-6-(pyrid-3-yl)-9H-pyrrolo-[2,3-b:5,4-c′]-dipyridine] | 100 to 1000 nM | 1 to 100 nM | 1 to 100 nM |
| CC(C)(N)C#Cc1c(F)cnc2[nH]c3cnc(-c4cccnc4)cc3c12 [Example 90, 4-[3-fluoro-6-(pyrid-3-yl)-9H-pyrrolo[2,3-b:5,4-c′]dipyrid-4-yl]-2-methylbut-3-yn-2-amine] | > 5000 nM | 100 to 1000 nM | 100 to 1000 nM |

Second part, the compound after the results:

| IC50 [1] | IC50 [2] | IC50 [3] | Structure (SMILES) |
| --- | --- | --- | --- |
| > 5000 nM | 1000 to 5000 nM | 1000 to 5000 nM | CN(C)c1cccc(-c2c(F)cnc3[nH]c4cnc(-c5cccnc5)cc4c23)c1 [Example 58, 3-[3-fluoro-6-(pyrid-3-yl)-9H-pyrrolo[2,3-b:5,4-c′]dipyrid-4-yl]-N,N-dimethylaniline] |
| > 5000 nM | 1 to 100 nM | 100 to 1000 nM | Cn1ccc2cc(-c3c(F)cnc4[nH]c5cnc(-c6cccnc6)cc5c34)ccc21 [Example 59, 3-fluoro-4-(1-methyl-1H-indol-5-yl)-6-(pyrid-3-yl)-9H-pyrrolo[2,3-b:5,4-c′]-dipyridine] |
| 1000 to 5000 nM | 1 to 100 nM | 100 to 1000 nM | Cn1cc(-c2c(F)cnc3[nH]c4cnc(-c5cccnc5)cc4c23)cn1 [Example 60, 3-fluoro-4-(1-methyl-1H-pyrazol-4-yl)-6-(pyrid-3-yl)-9H-pyrrolo[2,3-b:5,4-c′]-dipyridine] |
| 1000 to 5000 nM | 1 to 100 nM | 1 to 100 nM | CC(=O)NCc1ccc(-c2c(F)cnc3[nH]c4cnc(-c5cccnc5)cc4c23)cc1 [Example 61, N-{4-[3-fluoro-6-(pyrid-3-yl)-9H-pyrrolo[2,3-b:5,4-c′]-dipyrid-4-y]benzyl}-acetamide] |
| > 5000 nM | 100 to 1000 nM | 1000 to 5000 nM | O=C(O)CCC(=O)Nc1cccc(-c2c(F)cnc3[nH]c4cnc(-c5cccnc5)cc4c23)c1 [Example 65, acide 4-({3-[3-fluoro-6-(pyrid-3-yl)-9H-pyrrolo[2,3-b:5,4-c′]-dipyrid-4-yl]-phenyl}amino)-4-oxobutanoic acid] |
| > 5000 nM | 1000 to 5000 nM | 1000 to 5000 nM | Cn1nccc1-c1c(F)cnc2[nH]c3cnc(-c4cccnc4)cc3c12 [Example 67, 3-fluoro-4-(1-methyl-1H-pyrazol-5-yl)-6-(pyrid-3-yl)-9H-pyrrolo[2,3-b:5,4-c']-dipyridine] |
| 1000 to 5000 nM | 1 to 100 nM | 100 to 1000 nM | CC(C)C(=O)Nc1ccc(-c2c(F)cnc3[nH]c4cnc(-c5cccnc5)cc4c23)cc1 [Example 68, N-{4-[3-fluoro-6-(pyrid-3-yl)-9H-pyrrolo[2,3-b:5,4-c']-dipyrid-4-yl]phenyl}-2-methylpropanamide] |
| > 5000 nM | 100 to 1000 nM | 100 to 1000 nM | Fc1cnc2[nH]c3cnc(-c4cccnc4)cc3c2c1-c1cccnc1 [Example 69, 3-fluoro-4,6-di(pyrid-3-yl)-9H-pyrrolo[2,3-b:5,4-c′]dipyridine] |
| > 5000 nM | 1000 to 5000 nM | > 5000 nM | CS(=O)(=O)Nc1ccccc1-c1c(F)cnc2[nH]c3cnc(-c4cccnc4)cc3c12 [Example 70, N-{2-[3-fluoro-6-(pyrid-3-yl)-9H-pyrrolo[2,3-b:5,4-c′]-dipyrid-4-yl]phenyl}-methanesulfonamide] |
| 100 to 1000 nM | 1 to 100 nM | 100 to 1000 nM | Fc1cnc2[nH]c3cnc(-c4cccnc4)cc3c2c1-c1cn[nH]c1 [Example 71, 3-fluoro-4-(1H-pyrazol-4-yl)-6-(pyrid-3-yl)-9H-pyrrolo[2,3-b:5,4-c′]-dipyridine] |
| > 5000 nM | 100 to 1000 nM | 1000 to 5000 nM | CS(=O)(=O)c1cccc(-c2c(F)cnc3[nH]c4cnc(-c5cccnc5)cc4c23)c1 [Example 72, 3-fluoro-4-[3-(methylsulfonyl)phenyl]-6-(pyrid-3-yl)-9H-pyrrolo[2,3-b:5,4-c′]dipyridine] |
| 1000 to 5000 nM | 100 to 1000 nM | 100 to 1000 nM | Nc1ccc(-c2c(F)cnc3[nH]c4cnc(-c5cccnc5)cc4c23)cn1 [Example 74, 5-[3-fluoro-6-(pyrid-3-yl)-9H-pyrrolo[2,3-b,-c′]dipyrid-4-yl]pyrid-2-amine] |
